Measured values as given in ChEMBL document CHEMBL1154195, “Synthesis and binding affinity of potential atypical antipsychotics with the tetrahydroquinazolinone motif” (Bioorg Med Chem Lett, 2009).

How the values were obtained:
[1] = molecular target: D(2) dopamine receptor (Homo sapiens) (UniProt P14416); experiment: Displacement of [3H]spiperone from human cloned dopamine D2 receptor at 10 uM
[2] = molecular target: 5-hydroxytryptamine receptor 2A (Homo sapiens, UniProt P28223); experiment: Displacement of [3H]ketanserin from human cloned 5HT2A receptor
Homo sapiens = organism: Homo sapiens; experiment: Ratio of pKi for human cloned 5HT2A receptor to pKi for human cloned dopamine D2 receptor
D(3) dopamine receptor = D(3) dopamine receptor (Homo sapiens, UniProt P35462)
Description: Displacement of [3H]spiperone from human dopamine D3 receptor

D(1A) dopamine receptor = D(1A) dopamine receptor (Homo sapiens, UniProt P21728)
Description: Displacement of [3H]SCH23390 from human dopamine D1 receptor

[3] = molecular target: T1, 5-hydroxytryptamine receptor 2C (Homo sapiens, UniProt P28335); experiment: Displacement of [3H]mesulergine from human 5HT2C receptor
T1 sequence (P28335 whole entry): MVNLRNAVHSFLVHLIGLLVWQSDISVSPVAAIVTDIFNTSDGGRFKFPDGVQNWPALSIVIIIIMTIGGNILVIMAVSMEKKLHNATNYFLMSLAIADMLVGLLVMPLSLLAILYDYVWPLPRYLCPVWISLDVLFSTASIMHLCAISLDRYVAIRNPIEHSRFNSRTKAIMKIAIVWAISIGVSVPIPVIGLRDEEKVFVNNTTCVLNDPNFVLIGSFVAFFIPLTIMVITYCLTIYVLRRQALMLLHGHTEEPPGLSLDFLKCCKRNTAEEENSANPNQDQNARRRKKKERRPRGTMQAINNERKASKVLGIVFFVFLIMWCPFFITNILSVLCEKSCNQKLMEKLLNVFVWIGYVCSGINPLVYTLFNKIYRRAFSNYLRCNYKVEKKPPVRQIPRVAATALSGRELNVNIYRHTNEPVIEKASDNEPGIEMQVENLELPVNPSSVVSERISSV

Chain of D(3) dopamine receptor (P35462 whole entry): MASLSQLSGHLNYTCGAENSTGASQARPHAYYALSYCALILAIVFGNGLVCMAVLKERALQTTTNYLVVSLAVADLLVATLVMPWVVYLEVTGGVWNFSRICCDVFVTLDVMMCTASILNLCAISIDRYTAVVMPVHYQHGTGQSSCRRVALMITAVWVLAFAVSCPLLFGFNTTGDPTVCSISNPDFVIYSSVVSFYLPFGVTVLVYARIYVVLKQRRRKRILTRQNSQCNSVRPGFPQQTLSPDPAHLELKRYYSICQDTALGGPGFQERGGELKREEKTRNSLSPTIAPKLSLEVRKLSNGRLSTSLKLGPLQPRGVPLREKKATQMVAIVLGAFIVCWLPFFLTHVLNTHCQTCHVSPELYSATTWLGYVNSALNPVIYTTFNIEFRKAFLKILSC
Chain of 5-hydroxytryptamine receptor 2A (P28223 whole entry): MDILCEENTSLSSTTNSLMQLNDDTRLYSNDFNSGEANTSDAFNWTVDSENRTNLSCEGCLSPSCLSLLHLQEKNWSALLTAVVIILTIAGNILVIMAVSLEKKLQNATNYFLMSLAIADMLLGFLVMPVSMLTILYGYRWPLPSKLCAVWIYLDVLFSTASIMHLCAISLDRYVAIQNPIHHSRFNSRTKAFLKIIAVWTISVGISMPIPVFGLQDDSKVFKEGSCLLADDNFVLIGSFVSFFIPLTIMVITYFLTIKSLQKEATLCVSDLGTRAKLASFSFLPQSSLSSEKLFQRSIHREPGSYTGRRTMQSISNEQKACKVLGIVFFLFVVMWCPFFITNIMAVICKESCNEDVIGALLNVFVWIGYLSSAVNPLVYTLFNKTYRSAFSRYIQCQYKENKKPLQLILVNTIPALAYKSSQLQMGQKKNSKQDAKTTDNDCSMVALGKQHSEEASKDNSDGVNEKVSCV
Chain of D(2) dopamine receptor (Homo sapiens) (P14416 whole entry): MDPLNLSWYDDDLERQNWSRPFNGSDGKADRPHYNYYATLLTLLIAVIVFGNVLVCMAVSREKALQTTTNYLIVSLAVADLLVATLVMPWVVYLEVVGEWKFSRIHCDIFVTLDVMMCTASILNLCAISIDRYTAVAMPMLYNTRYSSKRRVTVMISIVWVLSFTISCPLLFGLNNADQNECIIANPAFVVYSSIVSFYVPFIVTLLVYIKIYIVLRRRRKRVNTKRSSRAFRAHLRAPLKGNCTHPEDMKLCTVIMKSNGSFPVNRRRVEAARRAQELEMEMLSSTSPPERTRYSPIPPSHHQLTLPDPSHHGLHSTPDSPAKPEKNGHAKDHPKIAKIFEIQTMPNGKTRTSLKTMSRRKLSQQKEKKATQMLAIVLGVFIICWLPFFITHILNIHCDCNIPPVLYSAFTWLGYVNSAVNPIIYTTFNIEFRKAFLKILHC
Chain of D(1A) dopamine receptor (P21728 whole entry): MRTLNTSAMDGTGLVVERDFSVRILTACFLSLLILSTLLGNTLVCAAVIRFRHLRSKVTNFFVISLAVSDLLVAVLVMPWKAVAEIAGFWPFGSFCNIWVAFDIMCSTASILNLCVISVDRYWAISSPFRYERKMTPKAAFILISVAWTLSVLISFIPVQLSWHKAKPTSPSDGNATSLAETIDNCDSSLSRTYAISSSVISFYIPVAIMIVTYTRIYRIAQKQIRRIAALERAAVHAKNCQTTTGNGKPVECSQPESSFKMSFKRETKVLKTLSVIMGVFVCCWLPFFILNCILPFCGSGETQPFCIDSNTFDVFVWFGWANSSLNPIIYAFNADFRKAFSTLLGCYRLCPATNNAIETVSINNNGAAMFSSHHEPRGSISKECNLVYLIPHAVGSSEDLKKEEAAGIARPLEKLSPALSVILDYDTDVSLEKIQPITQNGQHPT

SMILES	inhibition [1]	Ki [2]	Ratio pKi (Homo sapiens)	Ki (D(3) dopamine receptor)	Ki (D(1A) dopamine receptor)	Ki [3]
O=C1CC(CN2CCC(C(=O)c3ccc(F)cc3)CC2)Cc2nc(-c3ccccc3)ncc21 (stereo not drawn)	< 60%	631 nM	–	–	–	–
O=C1CC(CN2CCC(C(=O)c3ccc(F)cc3)CC2)Cc2ncncc21 (stereo not drawn)	–	309 nM	1.05	–	–	–
CNc1ncc2c(n1)CC(CN1CCC(c3noc4cc(F)ccc34)CC1)CC2=O (stereo not drawn)	–	2.4 nM	1.18	200 nM	42.7 nM	> 10000 nM
CNc1ncc2c(n1)CC(CN1CCC(C(=O)c3ccc(F)cc3)CC1)CC2=O (stereo not drawn)	–	6.46 nM	1.23	–	–	–
O=C1CC(CN2CCC(c3noc4cc(F)ccc34)CC2)Cc2nc(-c3ccccc3)ncc21 (stereo not drawn)	–	126 nM	0.92	–	–	–
CSc1ncc2c(n1)CC(CN1CCC(c3noc4cc(F)ccc34)CC1)CC2=O (stereo not drawn)	–	4.57 nM	–	44.7 nM	–	> 10000 nM
O=C1CC(CN2CCC(c3noc4cc(F)ccc34)CC2)Cc2ncncc21 (stereo not drawn)	–	23.4 nM	1.12	282 nM	135 nM	501 nM
CSc1ncc2c(n1)CC(CN1CCC(C(=O)c3ccc(F)cc3)CC1)CC2=O (stereo not drawn)	< 60%	102 nM	–	–	–	–
